# Experimental data reported in patent US20120226031A1, “PALMARUMYCIN BASED INHIBITORS OF THIOREDOXIN AND METHODS OF USING SAME” (ARIZONA BOARD OF REGENTS, ACTING ON BEHALF OF THE …, priority 2005, published 2012).
# Legend:
# [1] = Stability in ethanol at room temperature; format: physicochemical
# From the text: PX-916 was stable as a stock solution in ethanol at room temperature with a half life of >5 days. […] Therefore, for in vitro studies PX-916 was used as a stock solution in ethanol, and for in vivo studies made fresh in pH 4.0 buffer vehicle.
# [2] = target: T1, human glutathione reductase (Homo sapiens, UniProt P00390); test: Inhibition of human glutathione reductase (selectivity); format: biochemical
# T1 sequence (P00390 45-522 limits assumed): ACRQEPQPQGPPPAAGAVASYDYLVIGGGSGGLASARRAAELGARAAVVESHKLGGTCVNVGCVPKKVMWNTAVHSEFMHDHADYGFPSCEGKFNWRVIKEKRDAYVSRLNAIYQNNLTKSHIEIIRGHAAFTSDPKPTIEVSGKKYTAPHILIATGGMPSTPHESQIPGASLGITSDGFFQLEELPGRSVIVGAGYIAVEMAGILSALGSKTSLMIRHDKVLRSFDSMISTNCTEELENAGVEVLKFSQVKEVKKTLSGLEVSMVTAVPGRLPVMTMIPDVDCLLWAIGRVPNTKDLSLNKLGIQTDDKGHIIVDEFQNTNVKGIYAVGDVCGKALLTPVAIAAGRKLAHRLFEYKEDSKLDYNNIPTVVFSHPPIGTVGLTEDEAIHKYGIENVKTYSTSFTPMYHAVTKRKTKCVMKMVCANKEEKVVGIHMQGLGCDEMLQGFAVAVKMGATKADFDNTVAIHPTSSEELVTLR
# Protocol: Based upon the observation that PX-916 was rapidly converted to PX-960 in aqueous solution, the ability of PX-960 to inhibit purified human TR was measured and found to be similar to that of PX-916 (Table 2). PX-916 was a selective inhibitor of human TR compared to two other NADPH dependent reductases with a selectivity of at least 200 for human glutathione reductase and human cytochrome P-450 reductase (Table 3).
# HIF-1α = test: Tumor HIF-1α immunohistochemistry in MCF-7 xenografts; format: in vivo, mouse; details: five daily doses of 25 mg/kg, 24 hours after last dose
# Protocol: FIG. 5. Inhibition of tumor HIF-1α, VEGF and thioredoxin reductase by repeated administration of PX-916. Female scid mice were implanted 1d previously with a 90-d 17β-estradiol slow release pellet were inoculated s.c. with 10^7 MCF-7 human breast cancer cells. When the tumors were 300 mm^3, vehicle or 25 mg/kg/d PX-916 was given i.v. for five doses. Twenty four hours later, the tumors were removed and stained by immunohistochemistry for HIF-1α and VEGF (A) or assayed for thioredoxin reductase activity (B). Columns mean of four mice, SE. P≦0.05.
# Levels of the HIF-1α transcription factor and its downstream target VEGF are increased by thioredoxin-1 expression. We examined the effect of PX-916 administration on tumor HIF-1α and VEGF levels (FIG. 5A). Twenty-four hours after the last dose of five daily doses of PX-916 of 25 mg/kg, there was a decrease in MCF-7 xenograft staining for both HIF-1α and VEGF. At the same time, levels of tumor thioredoxin reductase activity were decreased by 75% (FIG. 5B).
# [3] = tested on: MCF-7 human tumor xenograft TR; test: Inhibition of tumor thioredoxin reductase in MCF-7 xenografts; format: in vivo, mouse; details: 25 mg/kg/d i.v. five daily doses, 24 hr after last dose
# Protocol: FIG. 3. Inhibition of cellular thioredoxin reductase by PX-916. MCF-7 human breast cancer cells grown in medium containing 1 μM Se for 7 days were treated with PX-916 and total cellular thioredoxin reductase activity measured. A. Time course of the inhibition of the thioredoxin reductase on exposure to 1 μM PX-916. […] In both cases values are the mean of 3 separate determinations and bars are S.E. P≦0.04 or **p≦0.01. C. Inhibition of MCF-7 tumor thioredoxin reductase by PX-916. MCF-7 human breast cancer xenografts were grown in female scid mice implanted with 17-β-estradiol 60 day slow-release pellets until they were ˜300 mm^3. The mice were administered a single dose of PX-916 of 25 mg/kg i.v. and tumors harvested at various times. Thioredoxin reductase activity was measured in tumor homogenates. Values are the mean of 3 mice at each time point and bars are SE. **p<0.01 compared to pretreatment value.
# FIG. 5. Inhibition of tumor HIF-1α, VEGF and thioredoxin reductase by repeated administration of PX-916. Female scid mice were implanted 1d previously with a 90-d 17β-estradiol slow release pellet were inoculated s.c. with 10^7 MCF-7 human breast cancer cells. When the tumors were 300 mm^3, vehicle or 25 mg/kg/d PX-916 was given i.v. for five doses. […]
# [4] = tested on: SHP-77 human small cell lung cancer; test: Antitumor activity, SHP-77 small cell lung cancer xenograft; format: in vivo, mouse
# Protocol: FIG. 4. Antitumor activity of PX-916. A. Female beige nude mice were inoculated subcutaneously (s.c.) with 10^7 A-673 rhabdomyosarcoma cells. When tumors were 100 mm^3 on day 8 (arrow) dosing was begun with (∘) vehicle alone; (▴) PX-916 10 mg/kg intraperitoneally (i.p.) daily for 4 doses. B. Female scid mice were inoculated s.c. with 10^7 SHP-77 human small cell lung cancer cells. When tumors were 130 mm^3 on day 17 (arrow) dosing was begun with (∘) vehicle alone; (▪) PX-916 10 mg/kg i.v. daily for 8 doses; (▴) PX-916 25 mg/kg i.v. daily for 5 doses. C. Female scid mice implanted 1 day previously with a 17-β-estradiol 60 day slow release pellet were inoculated s.c. with 10^7 MCF-7 human breast cancer cells. When tumors were 180 mm^3 on day 8 (arrow) dosing was begun with (∘) vehicle alone; (⋄) PX-916 27.5 mg/kg i.v. daily for 5 doses. In both A and B values are the mean of 8 mice per group and bars are SE.
# A single intravenous (i.v.) dose of PX-916 of 25 mg/kg inhibited MCF-7 human tumor xenograft TR up to about 60% at 24 hr and the inhibition was maintained for at least 48 hr (FIG. 3C). […] In this study 3 of eight nice had no histologically detectable tumor when the study was terminated on day 42.
# [5] = Plasma levels in mice after i.v. administration; format: in vivo, mouse; design: dose or concentration left out as unconfirmed; details: PX-916 i.v. to mice, 5 minutes after administration
# Protocol: Two metabolite peaks could be seen at 5 minutes, but were undetectable by 30 minutes.
# [6] = 10 mg/kg i.v. daily for 8 doses
# [7] = 25 mg/kg i.v. daily for 5 doses
smiles,measurement,setting,value
"NCC(=O)Oc1ccc2c3c(cccc13)OC1(C=CC(=O)c3c(O)cccc31)O2 (stereo not drawn) [PX-916, O-glycyl naphthoquinone spiroketal]",half life of stock solution in ethanol,[1]; b145,> 5 days
same,half-life,"[1]; ethanol, b120, read-out: half-life for conversion to PX-960 in ethanol",> 5 days
same,concentration increase needed to inhibit glutathione reductase,[2],greater than 100 fold
same,selectivity for human TR vs human glutathione reductase,[2],at least 200
same,Selectivity for TR vs glutathione reductase,[2]; Table 3,>200
same,IC50,"[2]; Table 3, read-out: Inhibition IC50, glutathione reductase (red blood cell)",> 50 µM
same,MCF-7 xenograft staining for HIF-1α,HIF-1α,decrease
same,decrease of tumor thioredoxin reductase activity,[3],75%
same,tumor growth inhibition,[4]; [6],39%
same,tumor growth rate,[4]; [6],about 91±24 mm^3/day
same,mice with no histologically detectable tumor on day 42,[4]; [7],3 of eight
same,tumor growth inhibition,[4]; [7],82%
same,tumor growth rate,"[4]; 25 mg/kg i.v. daily for 5 doses, 5 days after end of dosing",27 mm^3/day
same,tumor regressions,[4]; in words,complete tumor regressions were seen in some mice
same,detection of PX-916 in plasma,[5],could not be detected
